Data: ChEMBL document CHEMBL5550201, “Discovery of a Highly Potent, Selective and Efficacious USP7 Degrader for the Treatment of Acute Lymphoblastic Leukemia” (J Med Chem, 2024)
Calls of active or inactive are those of the source. No cut-off for these calls is given here.

How the values were obtained:
[1] = target: T1, von Hippel-Lindau disease tumor suppressor/Ubiquitin carboxyl-terminal hydrolase 7 (Homo sapiens, UniProt Q93009+P40337); assay: PROTACT activity at USP7/VHL in human REH cells assessed as protein degradation at 10 to 100 nM measured after 12 hrs by Western blot analysis; format: cell-based; details: dose 10-100 nM
[2] = system: RS4-11; assay: Induction of apoptosis in human RS4-11 cells assessed as necrotic cells at 10 nM measured after 72 hrs by FITC-annexin-V/PI analysis (reference value: 0%); format: functional
[3] = target: T1, von Hippel-Lindau disease tumor suppressor/Ubiquitin carboxyl-terminal hydrolase 7; assay: PROTACT activity at USP7/VHL in human RS4;11 cells assessed as protein degradation at 10 nM measured after 6 hrs in presence of proteasome inhibitors PS-171 by Western blot analysis; format: cell-based
[4] = system: RS4-11; assay: Induction of apoptosis in human RS4-11 cells assessed as necrotic cells at 100 nM measured after 72 hrs by FITC-annexin-V/PI analysis (reference value: 0%); format: functional
[5] = system: RS4-11; assay: Induction of apoptosis in human RS4-11 cells assessed as early apoptotic cells at 100 nM measured after 72 hrs by FITC-annexin-V/PI analysis (reference value: 5.36%); format: functional
[6] = system: RS4-11; assay: Induction of cell cycle arrest in human RS4-11 cells assessed as assessed as accumulation cells at G1/G0 phase measured after 12 hrs by flow cytometry; format: functional, cell-based; details: dose 1-1000 nM
[7] = system: RS4-11; assay: Induction of apoptosis in human RS4-11 cells assessed as early apoptotic cells at 1000 nM measured after 72 hrs by FITC-annexin-V/PI analysis (reference value: 5.36%); format: functional
[8] = system: RS4-11; assay: Induction of apoptosis in human RS4-11 cells assessed as necrotic cells at 1000 nM measured after 72 hrs by FITC-annexin-V/PI analysis (reference value: 0%); format: functional
[9] = system: RS4-11; assay: Induction of cell cycle arrest in human RS4-11 cells assessed as assessed as total apoptotic cells at 1 nM measured after 12 hrs by flow cytometry relative to control; format: functional
[10] = Toxicity in NOD/SCID mouse xenografted with human RS4-11 cells assessed as body weight change at 5 to 20 mg/kg, ip daily measured after 18 days relative to control; format: organism-based; details: in vivo, 432 h, dose 5-20 mg/kg, time 18 day

T1 sequence (P40337 whole entry, looked up): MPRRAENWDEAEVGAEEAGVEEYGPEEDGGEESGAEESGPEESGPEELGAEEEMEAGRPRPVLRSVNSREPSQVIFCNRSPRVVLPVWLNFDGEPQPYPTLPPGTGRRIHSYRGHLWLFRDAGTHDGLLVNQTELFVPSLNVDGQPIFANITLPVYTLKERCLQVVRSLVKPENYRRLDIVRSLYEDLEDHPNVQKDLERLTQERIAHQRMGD
T1 sequence (Q93009 whole entry, looked up): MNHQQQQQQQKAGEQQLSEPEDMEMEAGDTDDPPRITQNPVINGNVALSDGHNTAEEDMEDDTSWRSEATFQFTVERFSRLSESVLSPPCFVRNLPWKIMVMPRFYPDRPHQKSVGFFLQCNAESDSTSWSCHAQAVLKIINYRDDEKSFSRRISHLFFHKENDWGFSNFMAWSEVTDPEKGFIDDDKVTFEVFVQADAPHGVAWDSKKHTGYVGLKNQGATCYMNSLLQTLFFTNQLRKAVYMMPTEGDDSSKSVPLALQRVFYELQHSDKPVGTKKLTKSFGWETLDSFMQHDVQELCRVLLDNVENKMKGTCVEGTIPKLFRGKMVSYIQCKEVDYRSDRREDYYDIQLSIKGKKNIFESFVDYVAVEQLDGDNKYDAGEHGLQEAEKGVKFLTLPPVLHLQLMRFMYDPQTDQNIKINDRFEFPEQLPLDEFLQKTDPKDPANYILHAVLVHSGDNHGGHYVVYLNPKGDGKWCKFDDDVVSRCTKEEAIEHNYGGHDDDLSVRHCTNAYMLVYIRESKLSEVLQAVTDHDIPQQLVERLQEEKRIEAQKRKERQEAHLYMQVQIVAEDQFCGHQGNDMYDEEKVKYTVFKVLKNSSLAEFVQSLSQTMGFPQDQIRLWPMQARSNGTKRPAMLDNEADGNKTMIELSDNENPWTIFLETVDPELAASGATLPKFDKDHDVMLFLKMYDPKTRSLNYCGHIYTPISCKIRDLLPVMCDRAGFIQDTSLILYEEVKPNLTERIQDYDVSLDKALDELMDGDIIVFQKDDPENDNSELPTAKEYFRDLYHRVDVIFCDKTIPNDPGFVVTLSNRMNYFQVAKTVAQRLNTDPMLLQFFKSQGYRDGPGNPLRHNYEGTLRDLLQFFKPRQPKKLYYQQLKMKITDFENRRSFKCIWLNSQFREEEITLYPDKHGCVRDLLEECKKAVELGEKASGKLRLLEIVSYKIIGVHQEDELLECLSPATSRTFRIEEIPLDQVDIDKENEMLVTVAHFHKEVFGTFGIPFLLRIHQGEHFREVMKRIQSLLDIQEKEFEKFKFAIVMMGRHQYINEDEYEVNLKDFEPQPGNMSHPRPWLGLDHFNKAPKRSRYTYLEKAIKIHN

Activity [1]: Active
Activity [3]: inactive
Structure (SMILES): Cc1ncsc1-c1ccc([C@H](C)NC(=O)[C@@H]2C[C@@H](O)CN2C(=O)[C@@H](c2cc(N3CCN(Cc4ccc(-c5c6ncn(CC7(O)CCN(C(=O)C[C@@H](C)c8ccccc8)CC7)c(=O)c6nn5C)cc4)CC3)no2)C(C)C)cc1
Activity [2]: 0.01%
Activity [4]: 0.01%
Activity [5]: 19.6%
Activity [6]: Dose-Dependent Effect
Activity [7]: 19.81%
Activity [8]: 0%
Activity [9]: 12.98%
Activity [10]: Non-Toxic
